Reference: patent EP2669276A1 (Université de Strasbourg, priority 2012, dated 2013)

Experiments:
hNPFF2 = molecular target: T1, hNPFF2 (Homo sapiens, UniProt Q9Y5X5); assay: Receptor binding assay with [3H]-FFRFamide on CHO cell membranes expressing SF-hNPFFR2; details: [3H]-FFRF-NH2 radioligand, mean of at least two experiments; for Ki: read-out: Ki NPFF2
T1 construct: The cDNA encoding the full-length human NPFFR1 and human NPFFR2; expressed in transfected cells
From the text: (§1) The cDNA encoding the full-length human NPFFR1 and human NPFFR2 were subcloned into the pcDNA3 expression vector (Invitrogen, Cergy Pontoise, France) using standard molecular biology methods. A sequence encoding a signal sequence and a Flag epitope was fused to the 5' coding sequence of both hNPFFR1 and hNPFFR2 cDNA according to (Guan et al., 1992) resulting in a SF-hNPFFR1 and SF-hNPFFR2 constructs. These contructs were stably transfected into CHO cells.
(§2) Membranes from CHO cells stably expressing SF-hNPFFR1 or SF-hNPFFR2 were prepared as described (Becker et al., 1999). SF-hNPFFR1 or SF-hNPFFR2 membranes (10µg) were incubated for 30 min at 25 °C in a final volume of 0.5 ml containing 50 mM HEPES pH 7.4, 1 mM CaCl2, 1 mM MgCl2, 0.1% bovine serum albumin, 10 nM and 3 nM [^3H]-FFRFamide (CEA, Paris; specific activity, 13,6 Ci/mmol) for […], respectively and the ligands to be tested. Non-specific binding was determined in presence of 1 µM neuropeptide FF for SF-hNPFFR2 and 1 µM neuropeptide VF for SF -hNPFFR1. Typical total and nonspecific binding were 1200 and 200 dpm, respectively for SF-hNPFFR1 and SF-hNPFFR2. Incubation mixtures were rapidly filtered and washed with 50 mM HEPES pH 7.4, 1 mM CaCl2, 1 mM MgCl2, on 96 wells GF/B unifilter (Perkin Elmer). Unifilter plates where then dryied for 1hr at 65°C. Bound radioactivity was determined by scintillation counting with 30 µl of scintillation cocktail (O-scint, Perkin Elmer) per well on a Topcount scintillation apparatus (Perkin Elmer).

hNPFF1 = molecular target: T2, hNPFF1 (Homo sapiens, UniProt Q9GZQ6); assay: Receptor binding assay with [3H]-FFRFamide on CHO cell membranes expressing SF-hNPFFR1; details: [3H]-FFRF-NH2 radioligand, mean of at least two experiments; for Ki: read-out: Ki NPFF1
T2 construct: The cDNA encoding the full-length human NPFFR1 and human NPFFR2; expressed in transfected cells
From the text: as §1, §2

T1 sequence (Q9Y5X5 whole entry): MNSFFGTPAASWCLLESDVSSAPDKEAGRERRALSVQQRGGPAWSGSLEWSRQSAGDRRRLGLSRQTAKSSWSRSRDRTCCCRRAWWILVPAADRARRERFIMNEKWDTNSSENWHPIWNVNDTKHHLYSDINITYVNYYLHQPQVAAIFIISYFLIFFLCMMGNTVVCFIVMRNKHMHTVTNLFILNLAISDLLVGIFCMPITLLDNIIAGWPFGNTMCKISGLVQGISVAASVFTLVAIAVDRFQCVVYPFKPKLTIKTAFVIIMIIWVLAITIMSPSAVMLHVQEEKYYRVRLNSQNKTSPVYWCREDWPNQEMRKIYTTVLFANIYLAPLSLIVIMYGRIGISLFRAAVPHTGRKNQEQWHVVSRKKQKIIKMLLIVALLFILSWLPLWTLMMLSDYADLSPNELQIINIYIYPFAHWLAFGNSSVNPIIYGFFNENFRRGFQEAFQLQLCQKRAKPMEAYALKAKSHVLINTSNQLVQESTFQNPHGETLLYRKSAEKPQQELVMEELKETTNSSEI
T2 sequence (Q9GZQ6 whole entry): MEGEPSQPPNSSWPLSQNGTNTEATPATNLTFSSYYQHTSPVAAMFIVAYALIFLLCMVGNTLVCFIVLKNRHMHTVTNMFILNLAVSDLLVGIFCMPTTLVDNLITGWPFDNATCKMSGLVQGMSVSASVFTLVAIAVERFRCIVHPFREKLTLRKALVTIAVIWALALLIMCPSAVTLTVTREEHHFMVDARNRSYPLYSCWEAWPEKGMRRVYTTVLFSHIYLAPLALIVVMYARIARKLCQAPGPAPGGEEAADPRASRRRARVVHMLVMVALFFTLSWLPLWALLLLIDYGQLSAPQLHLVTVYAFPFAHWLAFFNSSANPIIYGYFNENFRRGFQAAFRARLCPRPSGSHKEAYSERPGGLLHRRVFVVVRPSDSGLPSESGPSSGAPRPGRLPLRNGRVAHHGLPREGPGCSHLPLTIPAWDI

Structure (SMILES) | Ki (hNPFF2) | Ki (hNPFF1) | inhibition at 0.5 µM (hNPFF2) | inhibition at 5 µM (hNPFF2) | inhibition at 0.5 µM (hNPFF1) | inhibition at 5 µM (hNPFF1)
O=C(N[C@@H](CCCNCc1ccccc1)C(=O)NCCc1ccccc1)c1ccccc1-c1ccccc1 [Compound 1, (2S)-5-(benzylamino)-N-(2-phenylethyl)-2-[(2-phenylphenyl)formamido]pentanamide] | 2300 ± 66 nM | 240 ± 38 nM |  |  |  | 
O=C(N[C@H](CCCNCc1ccccc1)C(=O)NCCc1ccccc1)c1ccccc1-c1ccccc1 [Compound 2, (2R)-5-(benzylamino)-N-(2-phenylethyl)-2-[(2-phenylphenyl)formamido]pentanamide] | 910 ± 94 nM | 480 ± 33 nM |  |  |  | 
O=C(N[C@@H](CCCNCCc1ccccc1)C(=O)NCCc1ccccc1)c1ccccc1-c1ccccc1 [Compound 3, (2S)-N-(2-phenylethyl)-5-[(2-phenylethyl)amino]-2-[(2-phenylphenyl)formamido]pentanamide] |  |  | 15 ± 15% | 24 ± 6% | 29 ± 2% | 61 ± 1%
CC(C)CNCCC[C@H](NC(=O)c1ccccc1-c1ccccc1)C(=O)NCCc1ccccc1 [Compound 4, (2S)-5-[(2-methylpropyl)amino]-N-(2-phenylethyl)-2-[(2-phenylphenyl)formamido]pentanamide] |  |  | 2 ± 6% | 7 ± 15% | 14 ± 1% | 23%
CN(CCc1ccccc1)C(=O)[C@H](CCCNCc1ccccc1)NC(=O)c1ccccc1-c1ccccc1 [Compound 5, (2S)-5-(benzylamino)-N-methyl-N-(2-phenylethyl)-2-[(2-phenylphenyl)formamido]pentanamide] | 1300 ± 590 nM | 56 ± 11 nM |  |  |  | 
O=C(N[C@@H](CCCCNCc1ccccc1)C(=O)NCCc1ccccc1)c1ccccc1-c1ccccc1 [Compound 6, (2S)-6-(benzylamino)-N-(2-phenylethyl)-2-[(2-phenylphenyl)formamido]hexanamide] | 720 ± 59 nM | 210 ± 39 nM |  |  |  | 
O=C(N[C@H](CCCCNCc1ccccc1)C(=O)NCCc1ccccc1)c1ccccc1-c1ccccc1 [Compound 7, (2R)-6-(benzylamino)-N-(2-phenylethyl)-2-[(2-phenylphenyl)formamido]hexanamide] | 605 ± 180 nM | 22 ± 4 nM |  |  |  | 
COc1ccccc1CNCCC[C@H](NC(=O)c1ccccc1-c1ccccc1)C(=O)NCCc1ccccc1 [Compound 8, (2S)-5-{[(2-methoxyphenyl)methyl]amino}-N-(2-phenylethyl)-2-[(2-phenylphenyl)formamido]pentanamide] | 103 ± 44 nM | 23 ± 4 nM |  |  |  | 
COc1cccc(CNCCC[C@H](NC(=O)c2ccccc2-c2ccccc2)C(=O)NCCc2ccccc2)c1 [Compound 9, (2S)-5-{[(3-methoxyphenyl)methyl]amino}-N-(2-phenylethyl)-2-[(2-phenylphenyl)formamido]pentanamide] |  |  | 9 ± 1% | 45% | 21 ± 4% | 60 ± 3%
COc1ccc(CNCCC[C@H](NC(=O)c2ccccc2-c2ccccc2)C(=O)NCCc2ccccc2)cc1 [Compound 10, (2S)-5-{[(4-methoxyphenyl)methyl]amino}-N-(2-phenylethyl)-2-[(2-phenylphenyl)formamido]pentanamide] |  | 30 ± 2 nM | 11 ± 20% | 40 ± 2% |  | 
O=C(N[C@@H](CCCNC1CCCCC1)C(=O)NCCc1ccccc1)c1ccccc1-c1ccccc1 [Compound 11, (2S)-5-(cyclohexylamino)-N-(2-phenylethyl)-2-[(2-phenylphenyl)formamido]pentanamide] |  |  | 8 ± 3% | 26 ± 8% | 49 ± 37% | 37 ± 1%
O=C(N[C@@H](CCCNCc1ccccc1Cl)C(=O)NCCc1ccccc1)c1ccccc1-c1ccccc1 [Compound 12, (2S)-5-{[(2-chlorophenyl)methyl]amino}-N-(2-phenylethyl)-2-[(2-phenylphenyl)formamido]pentanamide] |  |  | 25 ± 5% | 64 ± 3% | 32 ± 1% | 74 ± 2%
O=C(N[C@@H](CCCNCc1cccc(Cl)c1)C(=O)NCCc1ccccc1)c1ccccc1-c1ccccc1 [Compound 13, (2S)-5-{[(3-chlorophenyl)methyl]amino}-N-(2-phenylethyl)-2-[(2-phenylphenyl)formamido]pentanamide] |  | 59 ± 14 nM | 23 ± 17% | 67 ± 4% |  | 
O=C(N[C@@H](CCCNCc1ccc(Cl)cc1)C(=O)NCCc1ccccc1)c1ccccc1-c1ccccc1 [Compound 14, (2S)-5-{[(4-chlorophenyl)methyl]amino}-N-(2-phenylethyl)-2-[(2-phenylphenyl)formamido]pentanamide] |  | 45 ± 4 nM | 16 ± 2% | 54 ± 3% |  | 

More lines, now with the values ahead:

Ki (hNPFF2) | Ki (hNPFF1) | inhibition at 0.5 µM (hNPFF2) | inhibition at 5 µM (hNPFF2) | inhibition at 0.5 µM (hNPFF1) | inhibition at 5 µM (hNPFF1) | Structure (SMILES)
1100 ± 510 nM | 680 ± 160 nM |  |  |  |  | CN(CCC[C@H](NC(=O)c1ccccc1-c1ccccc1)C(=O)NCCc1ccccc1)Cc1ccccc1 [Compound 15, (2S)-5-[benzyl(methyl)amino]-N-(2-phenylethyl)-2-[(2-phenylphenyl)formamido]pentanamide]
 |  | 6 ± 13% | 47 ± 1% | 9 ± 4% | 50 ± 10% | COc1ccccc1CN(C)CCC[C@H](NC(=O)c1ccccc1-c1ccccc1)C(=O)NCCc1ccccc1 [Compound 16, (2S)-5-{[(2-methoxyphenyl)methyl](methyl)amino}-N-(2-phenylethyl)-2-[(2-phenylphenyl)formamido]pentanamide]
 |  | 18 ± 2% | 48 ± 3% | 17 ± 5% | 65 ± 6% | COc1ccc(CN(C)CCC[C@H](NC(=O)c2ccccc2-c2ccccc2)C(=O)NCCc2ccccc2)cc1OC [Compound 17, (2S)-5-{[(3,4-dimethoxyphenyl)methyl](methyl)amino}-N-(2-phenylethyl)-2-[(2-phenylphenyl)formamido]pentanamide]
 |  | 8 ± 5% | 40 ± 3% | 8 ± 3% | 45 ± 2% | CN(CCC[C@H](NC(=O)c1ccccc1-c1ccccc1)C(=O)NCCc1ccccc1)Cc1cccc(Cl)c1 [Compound 18, (2S)-5-{[(3-chlorophenyl)methyl](methyl)amino}-N-(2-phenylethyl)-2-[(2-phenylphenyl)formamido]pentanamide]
 |  | 0% | 39 ± 7% | 16 ± 5% | 60 ± 2% | CN(CCC[C@H](NC(=O)c1ccccc1-c1ccccc1)C(=O)NCCc1ccccc1)Cc1ccccc1Cl [Compound 19, (2S)-5-{[(2-chlorophenyl)methyl](methyl)amino}-N-(2-phenylethyl)-2-[(2-phenylphenyl)formamido]pentanamide]
 |  | 11 ± 3% | 39 ± 1% | 14 ± 7% | 51 ± 2% | CN(CCC[C@H](NC(=O)c1ccccc1-c1ccccc1)C(=O)NCCc1ccccc1)Cc1ccc(Cl)cc1 [Compound 20, (2S)-5-{[(4-chlorophenyl)methyl](methyl)amino}-N-(2-phenylethyl)-2-[(2-phenylphenyl)formamido]pentanamide]
 |  | 0% | 47% | 12 ± 10% | 58 ± 14% | COc1ccc(CN(C)CCC[C@H](NC(=O)c2ccccc2-c2ccccc2)C(=O)NCCc2ccccc2)cc1 [Compound 21, (2S)-5-{[(4-methoxyphenyl)methyl](methyl)amino}-N-(2-phenylethyl)-2-[(2-phenylphenyl)formamido]pentanamide]
 |  | 6% | 39 ± 2% | 7 ± 6% | 50 ± 2% | COc1cccc(CN(C)CCC[C@H](NC(=O)c2ccccc2-c2ccccc2)C(=O)NCCc2ccccc2)c1 [Compound 22, (2S)-5-{[(3-methoxyphenyl)methyl](methyl)amino}-N-(2-phenylethyl)-2-[(2-phenylphenyl)formamido]pentanamide]
 | 103 ± 15 nM | 22 ± 3% | 35 ± 8% |  |  | CN(CCC[C@H](NC(=O)c1ccccc1-c1ccccc1)C(=O)NCCc1ccccc1)CCc1ccccc1 [Compound 23, (2S)-5-[methyl(2-phenylethyl)amino]-N-(2-phenylethyl)-2-[(2-phenylphenyl)formamido]pentanamide]
320 ± 10 nM | 500 ± 10 nM |  |  |  |  | O=C(N[C@@H](CCCN1CCc2ccccc2C1)C(=O)NCCc1ccccc1)c1ccccc1-c1ccccc1 [Compound 24, (2S)-N-(2-phenylethyl)-2-[(2-phenylphenyl)formamido]-5-(1,2,3,4-tetrahydroisoquinolin-2-yl)pentanamide]
